pIC50: −log10 of the molar value. Structures can show the parent of a compound that is named as a salt.
How the values were obtained:
[1] = target: MMP13 (Homo sapiens, UniProt P45452); test: MMP13 inhibition; type: biochemical
[2] = target: T1, MMP1 (human recombinant fibroblast collagenase) (Homo sapiens, UniProt P03956); test: In vitro collagenase assay (fluorogenic peptide substrate); type: biochemical; conditions: read-out: MMP1 (1C50)
T1 construct: human recombinant fibroblast collagenase (truncated, mw=18,828, WAR, Radnor)
T1 sequence (P03956 100-269 limits assumed): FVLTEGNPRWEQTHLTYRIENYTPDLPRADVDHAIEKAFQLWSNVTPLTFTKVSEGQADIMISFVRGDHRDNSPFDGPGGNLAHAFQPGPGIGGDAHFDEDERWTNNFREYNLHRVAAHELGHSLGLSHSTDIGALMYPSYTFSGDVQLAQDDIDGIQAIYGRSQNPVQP
Description: The assay is based on the cleavage of a peptide substrate ((Dnp-Pro-Cha-Gly-Cyns(Me)-His-Ala-Lys(NMa)-NH2), Peptide International, Inc.) by collagenase releasing the fluorescent NMa group which is quantitated on the fluorometer. Dnp quenches the NMa fluorescence in the intact substrate. The assay is run in HCBC assay buffer (50 mM HEPES, pH 7.0, 5 mM Ca^+2, 0.02% Brij, 0.5% Cysteine), with human recombinant fibroblast collagenase (truncated, mw=18,828, WAR, Radnor). Substrate is dissolved in methanol and stored frozen in 1 mM aliquots. Collagenase is stored frozen in buffer in 25 μM aliquots. For the assay, substrate is dissolved in HCBC buffer to a final concentration of 10 μM and collagenase to a final concentration of 5 nM. Compounds are dissolved in methanol, DMSO, or HCBC. The methanol and DMSO are diluted in HCBC to <1.0%. Compounds are added to the 96 well plate containing enzyme and the reaction is started by the addition of substrate.
The reaction is read (excitation 340 nm, emission 444 nm) for 10 min. and the increase in fluorescence over time is plotted as a linear line. The slope of the line is calculated and represents the reaction rate.
(§1) The linearity of the reaction rate is confirmed (r^2>0.85). The mean (x±sem) of the control rate is calculated and compared for statistical significance (p<0.05) with drug-treated rates using Dunnett's multiple comparison test. […]

[3] = target: T2, MMP9 (human neutrophil gelatinase B) (Homo sapiens, UniProt P14780); test: In vitro gelatinase assay (thiopeptide substrate, DTNB); type: biochemical
T2 construct: from tissue; host or cells: human neutrophils
Description: The assay is based on the cleavage of the thiopeptide substrate ((Ac-Pro-Leu-Gly(2 mercapto-4 methyl-pentanoyl)-Leu-Gly-OEt), Bachem Bioscience) by the enzyme, gelatinase, releasing the substrate product which reacts calorimetrically with DTNB ((5,5′-dithio-bis(2-nitro-benzoic acid)). The enzyme activity is measured by the rate of the color increase.
The thiopeptide substrate is made up fresh as a 20 mM stock in 100% DMSO and the DTNB is dissolved in 100% DMSO as a 100 mM stock and stored in dark at room temperature. Both the substrate and DTNB are diluted together to 1 mM with substrate buffer (50 mM HEPES pH 7.5, 5 mM CaCl2) before use. The stock of human neutrophil gelatinase B is diluted with assay buffer (50 mM HEPES pH 7.5, 5 mM CaCl2, 0.02% Brij) to a final concentration of 0.15 nM. The assay buffer, enzyme, DTNB/substrate (500 μM final concentration) and vehicle or inhibitor are added to a 96 well plate (total reaction volume of 200 μl ) and the increase in color is monitored spectrophotometrically for 5 minutes at 405 nm on a plate reader.
The increase in OD405 is plotted and the slope of the line is calculated which represents the reaction rate.
as §1

[4] = target: T3, TACE (Homo sapiens, UniProt P78536); test: Procedure for measuring TACE inhibition (fluorescent peptidyl substrate); type: biochemical
T3 construct: purchased Immunex
Description: […] The reaction is initiated by addition of a fluorescent peptidyl substrate (final concentration 100 μM) to each well and then shaking on a shaker for 5 sec.
The reaction is read (excitation 340 nm, emission 420 nm) for 10 min. and the increase in fluorescence over time is plotted as a linear line. The slope of the line is calculated and represents the reaction rate.
The linearity of the reaction rate is confirmed (r^2>0.85). The mean (x±sem) of the control rate is calculated and compared for statistical significance (p<0.05) with drug-treated rates using Dunnett's multiple comparison test. Dose-response relationships can be generate using multiple doses of drug and IC50 values with 95% CI are estimated using linear regression.

T2 sequence (P14780 94-707): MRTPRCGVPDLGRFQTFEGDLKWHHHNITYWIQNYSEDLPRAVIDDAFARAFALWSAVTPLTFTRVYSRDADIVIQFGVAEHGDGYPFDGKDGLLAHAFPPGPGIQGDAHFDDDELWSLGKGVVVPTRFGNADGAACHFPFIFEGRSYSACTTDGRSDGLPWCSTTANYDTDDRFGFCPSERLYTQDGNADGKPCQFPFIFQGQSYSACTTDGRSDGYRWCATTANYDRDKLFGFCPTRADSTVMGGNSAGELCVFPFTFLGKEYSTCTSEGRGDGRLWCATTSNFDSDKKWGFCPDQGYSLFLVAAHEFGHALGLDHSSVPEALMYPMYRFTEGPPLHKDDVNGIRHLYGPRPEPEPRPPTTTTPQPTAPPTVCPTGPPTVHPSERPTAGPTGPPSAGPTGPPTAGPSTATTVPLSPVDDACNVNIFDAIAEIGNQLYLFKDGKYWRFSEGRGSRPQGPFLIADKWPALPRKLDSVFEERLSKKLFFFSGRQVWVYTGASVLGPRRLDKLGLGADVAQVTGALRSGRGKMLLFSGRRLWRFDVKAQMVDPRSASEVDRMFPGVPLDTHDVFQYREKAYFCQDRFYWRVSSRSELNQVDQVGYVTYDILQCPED
T3 sequence (P78536 215-824): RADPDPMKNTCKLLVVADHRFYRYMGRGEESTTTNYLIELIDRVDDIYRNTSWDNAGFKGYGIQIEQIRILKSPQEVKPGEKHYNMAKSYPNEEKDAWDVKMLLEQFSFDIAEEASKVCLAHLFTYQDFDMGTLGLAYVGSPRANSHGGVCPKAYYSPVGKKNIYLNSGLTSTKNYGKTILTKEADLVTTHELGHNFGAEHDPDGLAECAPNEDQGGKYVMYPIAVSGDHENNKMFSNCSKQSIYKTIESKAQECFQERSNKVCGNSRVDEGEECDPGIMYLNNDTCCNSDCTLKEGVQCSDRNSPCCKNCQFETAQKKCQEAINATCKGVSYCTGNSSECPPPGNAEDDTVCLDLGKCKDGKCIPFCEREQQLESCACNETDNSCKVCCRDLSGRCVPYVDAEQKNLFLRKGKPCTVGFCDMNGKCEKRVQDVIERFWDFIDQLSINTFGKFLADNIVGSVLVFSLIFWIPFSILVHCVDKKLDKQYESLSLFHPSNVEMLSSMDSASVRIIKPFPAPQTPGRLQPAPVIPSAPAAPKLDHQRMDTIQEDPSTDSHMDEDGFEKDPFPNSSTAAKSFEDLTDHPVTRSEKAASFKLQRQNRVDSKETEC

COc1ccc(S(=O)(=O)C2(C(=O)NO)CCCN(Cc3ccccc3)C2)cc1 (centres unmarked) (as salt: hydrochloride) [Example 18, 1-Benzyl-3-(4-methoxybenzenesulfonyl)piperidine-3-carboxylic acid hydroxamide]
melting point: 132.9 °C

COc1ccc(S(=O)(=O)C2(C(=O)NO)CCCN(Cc3ccccc3)C2)cc1 (centres unmarked) [Example 18, 1-Benzyl-3-(4-methoxybenzenesulfonyl)piperidine-3-carboxylic acid hydroxamide]
pIC50 [1]: 6.85 | pIC50 [2]: 5.89 | pIC50 [3]: 6.14 | inhibition at 10 µM [4]: 54%

— US20020099035A1, “Method for preparing alpha-sulfonyl hydroxamic acid derivatives” (priority 2001, published 2002)
